Data: the NIST ThermoML archive (doi:10.1016/j.jct.2018.07.012)

Test: mn = molality of the nth substance listed, in mol/kg
Conditions: for surface tension liquid-gas: Maximal bubble pressure; for mass density: 100 kPa, Liquid, Vibrating tube method

O [water] + CC(=O)[O-].CCCn1cc[n+](C)c1
m2 = 0
Conditions	mass density [kg/m3]	surface tension liquid-gas [mN/m]
288.15 K	–	73.5
293.15 K	–	72.8
298.15 K	–	72
303.15 K	–	71.2
308.15 K	994.06	70.4
313.15 K	–	69.6
318.15 K	–	68.7

CC(=O)[O-].CCCCC[n+]1ccn(C)c1 [1-methyl-3-pentylimidazolium acetate] + O
Conditions	mass density [kg/m3]	surface tension liquid-gas [mN/m]
288.15 K, m1 = 0.0113	1000.14	73.1
288.15 K, m1 = 0.0167	1000.28	73
288.15 K, m1 = 0.0278	1000.42	72.7
288.15 K, m1 = 0.0448	1000.64	72.2
288.15 K, m1 = 0.1117	1001.58	70.7
288.15 K, m1 = 0.1681	1002.3	69.3
288.15 K, m1 = 0.2233	1002.98	68
288.15 K, m1 = 0.2831	1003.85	66.7
288.15 K, m1 = 0.3358	1004.57	65.4
288.15 K, m1 = 0.3919	1005.36	64.1
288.15 K, m1 = 0.448	1006.14	62.9
288.15 K, m1 = 0.5032	1006.89	61.9
293.15 K, m1 = 0.0113	999.1	72.4
293.15 K, m1 = 0.0167	999.21	72.3
293.15 K, m1 = 0.0278	999.36	71.9
293.15 K, m1 = 0.0448	999.54	71.4
293.15 K, m1 = 0.1117	1000.47	69.9
293.15 K, m1 = 0.1681	1001.12	68.5
293.15 K, m1 = 0.2233	1001.89	67.4
293.15 K, m1 = 0.2831	1002.69	66
293.15 K, m1 = 0.3358	1003.38	64.7
293.15 K, m1 = 0.3919	1004.16	63.5
293.15 K, m1 = 0.448	1004.92	62.2
293.15 K, m1 = 0.5032	1005.68	61.2
298.15 K, m1 = 0.0113	997.82	71.6
298.15 K, m1 = 0.0167	997.9	71.4
298.15 K, m1 = 0.0278	998.08	71.1
298.15 K, m1 = 0.0448	998.25	70.7
298.15 K, m1 = 0.1117	999.05	69.3
298.15 K, m1 = 0.1681	999.71	67.9
298.15 K, m1 = 0.2233	1000.49	66.7
298.15 K, m1 = 0.2831	1001.32	65.4
298.15 K, m1 = 0.3358	1002.01	64.1
298.15 K, m1 = 0.3919	1002.76	62.9
298.15 K, m1 = 0.448	1003.5	61.7
298.15 K, m1 = 0.5032	1004.2	60.7
303.15 K, m1 = 0.0113	996.33	70.8
303.15 K, m1 = 0.0167	996.39	70.6
303.15 K, m1 = 0.0278	996.54	70.4
303.15 K, m1 = 0.0448	996.73	69.9
303.15 K, m1 = 0.1117	997.44	68.5
303.15 K, m1 = 0.1681	998.19	67
303.15 K, m1 = 0.2233	998.96	65.9
303.15 K, m1 = 0.2831	999.76	64.6
303.15 K, m1 = 0.3358	1000.44	63.3
303.15 K, m1 = 0.3919	1001.15	62.1
303.15 K, m1 = 0.448	1001.84	60.8
303.15 K, m1 = 0.5032	1002.51	59.8
308.15 K, m1 = 0.0113	994.67	69.9
308.15 K, m1 = 0.0167	994.74	69.8
308.15 K, m1 = 0.0278	994.85	69.5
308.15 K, m1 = 0.0448	995.01	69.1
308.15 K, m1 = 0.1117	995.82	67.6
308.15 K, m1 = 0.1681	996.5	66.2
308.15 K, m1 = 0.2233	997.24	65.1
308.15 K, m1 = 0.2831	998.03	63.9
308.15 K, m1 = 0.3358	998.7	62.7
308.15 K, m1 = 0.3919	999.4	61.4
308.15 K, m1 = 0.448	1000.08	60.2
308.15 K, m1 = 0.5032	1000.73	59.2
313.15 K, m1 = 0.0113	992.81	69.1
313.15 K, m1 = 0.0167	992.88	69
313.15 K, m1 = 0.0278	992.97	68.7
313.15 K, m1 = 0.0448	993.11	68.2
313.15 K, m1 = 0.1117	993.98	66.8
313.15 K, m1 = 0.1681	994.62	65.5
313.15 K, m1 = 0.2233	995.34	64.4
313.15 K, m1 = 0.2831	996.08	63.2
313.15 K, m1 = 0.3358	996.74	61.9
313.15 K, m1 = 0.3919	997.43	60.7
313.15 K, m1 = 0.448	998.1	59.5
313.15 K, m1 = 0.5032	998.74	58.6
318.15 K, m1 = 0.0113	990.79	68.3
318.15 K, m1 = 0.0167	990.87	68.2
318.15 K, m1 = 0.0278	990.95	67.9
318.15 K, m1 = 0.0448	991.1	67.5
318.15 K, m1 = 0.1117	991.99	66.1
318.15 K, m1 = 0.1681	992.61	64.8
318.15 K, m1 = 0.2233	993.28	63.6
318.15 K, m1 = 0.2831	994.03	62.3
318.15 K, m1 = 0.3358	994.67	61.1
318.15 K, m1 = 0.3919	995.33	60
318.15 K, m1 = 0.448	995.97	58.9
318.15 K, m1 = 0.5032	996.58	57.9
